Results as given in ChEMBL document CHEMBL5214942, “Discovery of biphenyls bearing thiobarbiturate fragment by structure-based strategy as Mycobacterium tuberculosis protein tyrosine phosphatase B inhibitors” (Bioorg Med Chem, 2022).
In brackets after ≈: the same amount, converted by molar mass. Activity calls are given as the source filed them. No cut-off for these calls is given here.

How the values were obtained:
[1] = biological target: T1, Tyrosine-protein phosphatase non-receptor type 1 (Homo sapiens, UniProt P18031); test: Inhibition of recombinant human PTP1B using pNPP as substrate preincubated for 5 mins followed by substrate addition assessed as reduction in p-nitrophenol release
T1 sequence (P18031 whole entry): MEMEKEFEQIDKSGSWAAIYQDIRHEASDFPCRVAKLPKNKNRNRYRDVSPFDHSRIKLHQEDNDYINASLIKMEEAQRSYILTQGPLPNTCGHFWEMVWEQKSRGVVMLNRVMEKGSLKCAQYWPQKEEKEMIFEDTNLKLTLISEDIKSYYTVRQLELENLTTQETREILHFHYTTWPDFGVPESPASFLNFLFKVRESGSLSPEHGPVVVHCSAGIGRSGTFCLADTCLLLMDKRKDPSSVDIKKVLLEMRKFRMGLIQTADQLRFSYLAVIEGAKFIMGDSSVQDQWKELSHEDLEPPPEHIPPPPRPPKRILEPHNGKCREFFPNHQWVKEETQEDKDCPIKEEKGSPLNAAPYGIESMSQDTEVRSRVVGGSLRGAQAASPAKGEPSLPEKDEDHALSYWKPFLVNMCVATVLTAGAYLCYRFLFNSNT

[2] = biological target: T2, Phosphotyrosine-protein phosphatase PTPB (Mycobacterium tuberculosis, UniProt P96830); test: Inhibition of recombinant Mycobacterium tuberculosis H37Rv MptpB using pNPP as substrate incubated for 10 mins and measured by spectrophotometric method
T2 sequence (P96830 whole entry): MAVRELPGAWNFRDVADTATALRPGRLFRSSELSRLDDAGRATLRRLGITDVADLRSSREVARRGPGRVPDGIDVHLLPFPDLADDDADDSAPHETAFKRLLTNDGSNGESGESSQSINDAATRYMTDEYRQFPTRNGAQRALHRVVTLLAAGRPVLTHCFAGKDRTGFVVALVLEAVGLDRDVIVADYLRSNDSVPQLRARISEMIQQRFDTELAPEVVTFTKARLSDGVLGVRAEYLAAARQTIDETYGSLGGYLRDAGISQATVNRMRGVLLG

[3] = Cytotoxicity against mouse J774.A1 cells after 48 hrs by MTT assay; assay type: toxicity, cell-based
[4] = biological target: T3, Low molecular weight protein-tyrosine phosphatase A (Mycobacterium tuberculosis) (UniProt P9WIA1); test: Inhibition of recombinant Mycobacterium tuberculosis H37Rv MptpA using pNPP as substrate at 50 uM incubated for 10 mins and measured by spectrophotometric method relative to control
T3 sequence (whole entry): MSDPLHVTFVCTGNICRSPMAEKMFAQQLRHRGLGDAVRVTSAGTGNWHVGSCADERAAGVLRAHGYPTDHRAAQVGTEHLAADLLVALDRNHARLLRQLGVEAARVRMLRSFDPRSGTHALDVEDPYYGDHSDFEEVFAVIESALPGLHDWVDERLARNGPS

[5] = biological target: T4, Tyrosine-protein phosphatase non-receptor type 1 (Homo sapiens) (UniProt P18031); test: Inhibition of recombinant human PTP1B using pNPP as substrate preincubated for 5 mins followed by substrate addition assessed as reduction in p-nitrophenol release at 50 uM relative to control
T4 sequence (whole entry): T1 sequence (P18031 whole entry)

[6] = biological target: T5, Phosphotyrosine-protein phosphatase PTPB (Mycobacterium tuberculosis) (UniProt P96830); test: Inhibition of recombinant Mycobacterium tuberculosis H37Rv MptpB using pNPP as substrate incubated for 10 mins at 50 uM and measured by spectrophotometric method relative to control
T5 sequence (whole entry): T2 sequence (P96830 whole entry)

[7] = Cytotoxicity against African green monkey Vero cells after 48 hrs by MTT assay; assay type: toxicity, cell-based; details: African green monkey (Chlorocebus sabaeus)
[8] = test system: Mycobacterium tuberculosis; test: Antimycobacterial activity against Mycobacterium tuberculosis H37Rv measured by microplate alamar blue assay; assay type: functional
[9] = test system: Mycobacterium tuberculosis; test: Antimycobacterial activity against Mycobacterium tuberculosis infected in mouse J774.A1 cells assessed as reduction in intracellular bacterial burden at 5 ug/ml measured by colony counting method; assay type: functional; set-up: scale not given: the % may be the effect or the level left; details: dose 5 µg/ml
[10] = test system: Mycobacterium tuberculosis; test: Antimycobacterial activity against Mycobacterium tuberculosis infected in mouse J774.A1 cells assessed as reduction in intracellular bacterial burden at 1 to 10 ug/ml measured by colony counting method; assay type: functional, organism-based; details: dose 1-10 µg/ml
[11] = biological target: T6, Low molecular weight protein-tyrosine phosphatase A (Mycobacterium tuberculosis, UniProt P9WIA1); test: Inhibition of recombinant Mycobacterium tuberculosis H37Rv MptpA using pNPP as substrate incubated for 10 mins and measured by spectrophotometric method
T6 sequence (P9WIA1 whole entry): T3 sequence (whole entry)

[12] = biological target: T2, Phosphotyrosine-protein phosphatase PTPB; test: Non-competitive inhibition of recombinant Mycobacterium tuberculosis H37Rv MptpB using pNPP as substrate

SMILES	IC50 [2] [µM]	IC50 at 48 h [3] [µg/mL]	inhibition [6] [%]	IC50 at 48 h [7] [µg/mL]	MIC [8] [µg/mL]	also measured
O=C1NC(=S)NC(=O)C1=Cc1ccc(OCc2ccc(Cl)cc2)cc1-c1cc(Cl)c(O)c(Cl)c1	3.62	57 (≈ 107 µM)	95	> 64	> 32	IC50 [1]: 34.1 µM; inhibition [4]: 49%; inhibition [5]: 78.6%
Cc1onc(C(=O)O)c1-c1cccc(-c2cc(Cl)c(O)c(Cl)c2)c1	2.98					
O=C1NC(=S)NC(=O)C1=Cc1ccc(-c2cc(Cl)c(O)c(Cl)c2)c(OCc2ccc(Cl)cc2)c1			75.2			
O=C1NC(=S)NC(=O)C1=Cc1cc(-c2ccc3occc(=O)c3c2)ccc1OCc1ccc(Cl)cc1			73			
O=C1NC(=S)NC(=O)C1=Cc1cc(-c2cc(Cl)c(O)c(Cl)c2)ccc1OCc1ccccc1	3.81	3.44 (≈ 6.89 µM)	95.4	> 64	25.1 (≈ 50.2 µM)	IC50 [1]: 27.3 µM; inhibition [4]: 14.6%; inhibition [5]: 87.7%
CO[C@H]1/C=C/O[C@@]2(C)Oc3c(C)c(O)c4c(O)c(c(/C=N/N5CCN(C)CC5)c(O)c4c3C2=O)NC(=O)/C(C)=C\C=C\[C@H](C)[C@H](O)[C@@H](C)[C@@H](O)[C@@H](C)[C@H](OC(C)=O)[C@@H]1C [RIFAMPIN]		> 64		> 64	0.037 (≈ 0.045 µM)	
O=C1NC(=O)C(=Cc2cc(-c3cc(Cl)c(O)c(Cl)c3)ccc2OCc2ccc(Cl)cc2)C(=O)N1			16.2			
COC(=O)c1ccc(-c2ccc(OCc3ccc(Cl)cc3)c(C=C3C(=O)NC(=S)NC3=O)c2)cc1			63.3			
O=C1NC(=S)NC(=O)C1=Cc1cc(-c2cc3ccccc3s2)ccc1OCc1ccc(Cl)cc1			57.5			
O=C1NC(=S)NC(=O)C1=Cc1cc(-c2cc(Cl)c(O)c(Cl)c2)ccc1OCc1ccc(Cl)cc1	1.18	13 (≈ 24.4 µM)	95.9	> 64	> 32	Activity [9]: 90%; Activity [10]: Active; IC50 [1]: 5.16 µM; IC50 [11]: 8.97 µM; Ki [12]: 1.01 µM; inhibition [4]: 86.4%; inhibition [5]: 98.3%
O=C1NC(=S)NC(=O)C1=Cc1cc(-c2ccc(O)c(F)c2)ccc1OCc1ccc(Cl)cc1			65			
Cc1cc(-c2ccc(OCc3ccc(Cl)cc3)c(C=C3C(=O)NC(=S)NC3=O)c2)cc(C)c1O			59.2			
CN1C(=O)C(=Cc2cc(-c3cc(Cl)c(O)c(Cl)c3)ccc2OCc2ccc(Cl)cc2)C(=O)N(C)C1=S	14.1		87			
O=C1NC(=S)NC(=O)C1=Cc1cc(-c2cc(Cl)c(O)c(Cl)c2)ccc1OCc1cc(F)cc(F)c1	5.32	15.4 (≈ 28.8 µM)	89.1	> 64	> 32	IC50 [1]: 6.28 µM; inhibition [5]: 92.3%
O=C1NC(=S)NC(=O)C1=Cc1c(OCc2ccc(Cl)cc2)cccc1-c1cc(Cl)c(O)c(Cl)c1			45.5			
O=C1NC(=S)NC(=O)C1=Cc1cc(-c2ccc(OC(F)(F)F)cc2)ccc1OCc1ccc(Cl)cc1			65			
O=C1NC(=S)NC(=O)C1=Cc1cc(OCc2ccc(Cl)cc2)cc(-c2cc(Cl)c(O)c(Cl)c2)c1	4.7	39.9 (≈ 74.7 µM)	91.6	> 64	> 32	IC50 [1]: 7.81 µM; inhibition [4]: 39.7%; inhibition [5]: 93.7%
NNC(=O)c1ccncc1 [ISONIAZID]		> 64		> 64	0.072 (≈ 0.525 µM)	
O=C1NC(=S)NC(=O)C1=Cc1cc(-c2ccc(O)c(Cl)c2)ccc1OCc1ccc(Cl)cc1			72.7			
C/C=C(\C)[C@@H]1C(C)=C[C@@H]2CC(C)=CC[C@H]2[C@@H]1/C=C/C=C(\C)[C@@H](O)[C@@H](C)C(=O)O	1.05					
O=C1NC(=S)NC(=O)C1=Cc1ccc(OCc2ccc(Cl)cc2)c(-c2cc(Cl)c(O)c(Cl)c2)c1	5.95	13.9 (≈ 26 µM)	84.4	> 64	> 32	IC50 [1]: 3.43 µM; inhibition [4]: 69.6%; inhibition [5]: 98.2%
O=C1NC(=S)NC(=O)C1=Cc1cc(-c2ccc(Cl)cc2)ccc1OCc1ccc(Cl)cc1			77.5			
COc1ccc(-c2ccc(OCc3ccc(Cl)cc3)c(C=C3C(=O)NC(=S)NC3=O)c2)cc1			42.7			
O=C1NC(=S)NC(=O)C1=Cc1cc(-c2ccc(C(F)(F)F)cc2)ccc1OCc1ccc(Cl)cc1	3.82	14.8 (≈ 28.6 µM)	86.4	> 64	> 32	IC50 [1]: 3.93 µM; IC50 [11]: 20 µM; inhibition [4]: 74.2%; inhibition [5]: 81.4%
O=C1NC(=S)NC(=O)C1=Cc1cc(-c2ccccc2)ccc1OCc1ccc(Cl)cc1			43.9			
CN1C(=O)C(=Cc2cc(-c3cc(Cl)c(O)c(Cl)c3)ccc2OCc2ccc(Cl)cc2)C(=O)N(C)C1=O			51.9			
O=C(C(c1ccccc1)S(=O)(=O)O)N1CCCC2CCCCC21 (configuration not stated)	0.018					
O=C1NC(=S)NC(=O)C1=Cc1cc(Br)ccc1OCc1ccc(Cl)cc1	22.4		63			
